For 45 compounds, IC50 and melting point results are on record in patent US20050154230A1, “Urea derivatives” (Bayer HealthCare AG, priority 2001, published 2005).

T1 sequence (Q8NER1 whole entry): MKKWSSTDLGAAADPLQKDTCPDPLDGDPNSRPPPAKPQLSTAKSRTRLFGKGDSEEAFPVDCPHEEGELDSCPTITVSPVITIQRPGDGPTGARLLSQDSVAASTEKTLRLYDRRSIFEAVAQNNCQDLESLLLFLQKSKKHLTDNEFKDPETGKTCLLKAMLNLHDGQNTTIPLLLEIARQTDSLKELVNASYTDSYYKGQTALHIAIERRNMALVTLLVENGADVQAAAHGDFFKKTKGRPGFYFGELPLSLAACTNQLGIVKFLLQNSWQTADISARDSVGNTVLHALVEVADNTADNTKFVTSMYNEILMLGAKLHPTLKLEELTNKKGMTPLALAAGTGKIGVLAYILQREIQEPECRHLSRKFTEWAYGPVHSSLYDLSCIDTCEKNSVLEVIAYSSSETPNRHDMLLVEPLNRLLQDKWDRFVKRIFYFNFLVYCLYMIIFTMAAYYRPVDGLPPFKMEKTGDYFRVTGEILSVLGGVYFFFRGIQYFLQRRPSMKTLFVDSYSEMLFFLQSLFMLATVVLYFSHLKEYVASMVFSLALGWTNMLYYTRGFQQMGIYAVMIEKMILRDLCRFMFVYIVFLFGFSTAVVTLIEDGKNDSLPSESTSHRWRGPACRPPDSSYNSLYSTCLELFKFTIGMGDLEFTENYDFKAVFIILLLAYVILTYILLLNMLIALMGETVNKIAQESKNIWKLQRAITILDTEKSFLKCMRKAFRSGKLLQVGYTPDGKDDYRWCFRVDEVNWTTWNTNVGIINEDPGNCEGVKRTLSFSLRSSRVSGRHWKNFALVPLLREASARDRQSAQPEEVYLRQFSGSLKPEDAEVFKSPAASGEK

One data set concerns the target T1, human VR1 (Homo sapiens, UniProt Q8NER1).
T1 construct: expressed in transfected cells
In words: Capsaicin-induced Ca2+ influx in the human VR1-transfected CHO cell line (Assay 1). Format: cell-based.
Conditions: not given
How it is done: [Measurement of Capsaicin-Induced Ca^2+ Influx in the Human VR1-Transfected CHO Cell Line] (Assay 1)
(1) Establishment of the Human VR1-CHOluc9aeq Cell Line
The cloned hVR1 cDNA was constructed with pcDNA3 vector and transfected into a CHOluc9aeq cell line. The cell line contains aequorin and CRE-luciferase reporter genes as read-out signals. The transfectants were cloned by limiting dilution in selection medium (DMEM/F12 medium (Gibco BRL) supplemented with 10% FCS, 1.4 mM Sodium pyruvate, 20 mM HEPES, 0.15% Sodium bicarbonate, 100 U/ml penicillin, 100 μg/ml streptomycin, 2 mM glutamine, non-essential amino acids and 2 mg/ml G418). Ca^2+ influx was examined in the capsaicin-stimulated clones. […] The human VR1-CHOluc9aeq cells were maintained in the selection medium and passaged every 3-4 days at 1-2.5×10^5 cells/flask ([…]).
(2) Measurement of Ca^2+ Influx Using FDSS-3000
Human VR1-CHOluc9aeq cells were suspended in a culture medium which is the same as the selection medium except for G418 and seeded at a density of 1,000 cells per well into 384-well plates (black walled clear-base/Nalge Nunc International). […] After washing twice with assay buffer the cells were incubated with a test compound or vehicle for 20 min at 25° C. […] Integral R was calculated and compared with controls.
For `COc1cc(CNC(=O)Nc2ccc(C(C)C)cc2)ccc1O` [Example 1-1, N-(4-hydroxy-3-methoxybenzyl)-N′-(4-isopropylphenyl)urea], the IC50 was < 100 nM.
The compound `COc1cc(CNC(=O)Nc2ccc(F)c([N+](=O)[O-])c2)ccc1O` [Example 66] yielded an IC50 of 100 to 500 nM.
For `COc1cc(CNC(=O)Nc2cccc3ccccc23)ccc1O` [Example 70], the IC50 was < 100 nM.
Take `COc1cc(CNC(=O)Nc2cccc(C)c2)ccc1O` [Example 82]: the IC50 was in the range of 100 to 500 nM.

The same data set, now with this note: human VR1-CHOluc9aeq cells, 10 nM capsaicin; compound purity about 40 to 90%; read-out: Activity grade.
In the case of `O=C(Nc1ccc(Cl)c(Cl)c1)Nc1ccccc1CCO` [Example 1-2, N-(3,4-dichlorophenyl)-N′-[2-(2-hydroxyethyl)phenyl]urea], the IC50 is < 100 nM.
Same read-out and setting: the figure for `COc1cc(CNC(=O)Nc2cccc(-c3ccc(Cl)cc3)c2)ccc1O` [Example 2-1, N-(4′-chloro-1,1′-biphenyl-3-yl)-N′-(4-hydroxy-3 methoxybenzyl)urea] is < 100 nM; for `O=C(Nc1cccc(-c2ccccc2)c1)Nc1ccccc1CCO` [Example 3-1, N-(1,1′-biphenyl-3-yl)-N′-[2-(2-hydroxyethyl)phenyl]urea] it is < 100 nM.

The same data set, now with this note: human VR1-CHOluc9aeq cells, 10 nM capsaicin; compound purity about 40 to 90%; read-out: hVR1 class.
Regarding `COc1cccc(NC(=O)NCc2ccc(O)c(OC)c2)c1` [Example 34], the IC50 lay within 500 to 1000 nM.
On to `COc1ccc2c(c1)C(NC(=O)Nc1ccc(F)cc1)CCC2` (stereo not drawn) [Example 53], for which the IC50 fell in the range of 500 to 1000 nM.
The same measure, in the same setting: to `COc1cc(CNC(=O)Nc2ccc(Cl)c(C(F)(F)F)c2)ccc1O` [Example 55] belongs < 100 nM; to `COc1cc(CNC(=O)Nc2ccc(F)cc2)ccc1O` [Example 56], 500 to 1000 nM; to `COc1cc(CNC(=O)Nc2ccccc2OC)ccc1O` [Example 57], 500 to 1000 nM.
For the compound `COc1cc(CNC(=O)Nc2ccccc2[N+](=O)[O-])ccc1O` [Example 58], the IC50 was 500 to 1000 nM.
For `COc1cc(CNC(=O)Nc2c(C)cccc2C)ccc1O` [Example 60], the IC50 was 500 to 1000 nM.
With `COc1cc(CNC(=O)Nc2ccc(C)cc2C)ccc1O` [Example 62], the IC50 is 500 to 1000 nM.
The same measure, in the same setting: to `COc1cc(CNC(=O)Nc2ccc(Br)cc2)ccc1O` [Example 63] belongs 100 to 500 nM; to `COc1cc(CNC(=O)Nc2ccc(Cl)c([N+](=O)[O-])c2)ccc1O` [Example 64], 100 to 500 nM; to `COc1cc(CNC(=O)Nc2cc([N+](=O)[O-])ccc2F)ccc1O` [Example 65], 500 to 1000 nM.
Consider `COc1cc(CNC(=O)Nc2ccc(Cl)c(Cl)c2)ccc1O` [Example 71], for which the IC50 is < 100 nM.
As to `COc1cc(CNC(=O)Nc2c(C)cc(C)cc2C)ccc1O` [Example 72], the IC50 is 500 to 1000 nM.
In the case of `COc1cc(CNC(=O)Nc2ccc(Cl)cc2)ccc1O` [Example 83], the IC50 was < 100 nM.
As to `Nc1ccc2c(c1)C(NC(=O)Nc1ccc(Cl)c(C(F)(F)F)c1)CCC2` (stereo not drawn) [Example 96], the IC50 lay in the range of 500 to 1000 nM.
`O=C(Nc1ccc(Cl)c(C(F)(F)F)c1)Nc1ccccc1CCO` [Example 98]: the IC50 was < 100 nM.
The same measure, in the same setting: the figure for `O=C(Nc1ccc(Oc2ccccc2)cc1)Nc1ccccc1CCO` [Example 99] is < 100 nM; for `CCOC(=O)c1cccc(NC(=O)Nc2ccccc2CCO)c1` [Example 100] it is 100 to 500 nM; for `CC(C)c1ccc(NC(=O)Nc2ccccc2CCO)cc1` [Example 101] it is 100 to 500 nM.
`O=C(Nc1ccc2ccccc2c1)Nc1ccccc1CCO` [Example 102]: the IC50 lay in the range of 100 to 500 nM.
Same read-out and setting: the figure for `O=C(NCc1ccc(Br)cc1)Nc1ccccc1CCO` [Example 103] is 100 to 500 nM; for `O=C(Nc1ccccc1Cl)Nc1ccccc1CCO` [Example 104] it is 500 to 1000 nM; for `O=C(Nc1cccc(Cl)c1)Nc1ccccc1CCO` [Example 105] it is 500 to 1000 nM.
The same measure, in the same setting: to `O=C(Nc1ccc(Cl)cc1)Nc1ccccc1CCO` [Example 106] belongs 500 to 1000 nM; to `O=C(Nc1cccc(C(F)(F)F)c1)Nc1ccccc1CCO` [Example 107], 100 to 500 nM.
On the same count and under the same terms, to `O=C(Nc1ccc(C(F)(F)F)cc1)Nc1ccccc1CCO` [Example 108] belongs 100 to 500 nM; to `O=C(Nc1cc(Cl)cc(Cl)c1)Nc1ccccc1CCO` [Example 109], 100 to 500 nM.
Take `O=C(Nc1ccc([N+](=O)[O-])cc1)Nc1ccccc1CCO` [Example 110]: the IC50 lay within 500 to 1000 nM.
Still for that read-out and setting: to `O=C(Nc1ccc(F)c([N+](=O)[O-])c1)Nc1ccccc1CCO` [Example 111] belongs 500 to 1000 nM; to `O=C(Nc1ccccc1CCO)Nc1cccc2cc(O)ccc12` [Example 167], 500 to 1000 nM; to `CN(C)c1ccc(-c2cccc(NC(=O)Nc3ccccc3CCO)c2)cc1` [Example 170], < 100 nM.
Take `CC(C)(C)c1ccc(C(C)(C)C)c(NC(=O)Nc2ccccc2CCO)c1` [Example 177]: the IC50 fell in the range of 500 to 1000 nM.
The same measure, in the same setting: to `O=C(Nc1ccc(-c2ccc([N+](=O)[O-])cc2)cc1)Nc1ccccc1CCO` [Example 178] belongs 100 to 500 nM; to `O=C(Nc1cccc(-c2ccc(F)cc2)c1)Nc1ccccc1CCO` [Example 193], < 100 nM.
As for `O=C(Nc1cccc(-c2ccc(Cl)cc2)c1)Nc1ccccc1CCO` [Example 194], the IC50 was < 100 nM.
Still for that read-out and setting: the figure for `COc1cccc(NC(=O)Nc2cccc(-c3ccc(Cl)cc3)c2)c1CCO` [Example 251] is < 100 nM.

System in a further data set: not given
Assay: not given
Conditions: not given
Consider `COc1cc(CNC(=O)Nc2ccc(C(C)C)cc2)ccc1O` [Example 1-1, N-(4-hydroxy-3-methoxybenzyl)-N′-(4-isopropylphenyl)urea], for which the melting point – broadly, the temperature, or range, at which the solid turns liquid – turned out to be 156 °C.
In turn, `O=C(Nc1ccc(Cl)c(Cl)c1)Nc1ccccc1CCO` [Example 1-2, N-(3,4-dichlorophenyl)-N′-[2-(2-hydroxyethyl)phenyl]urea] gave a melting point of 188 to 190 °C.
On to `COc1cc(CNC(=O)Nc2cccc(-c3ccc(Cl)cc3)c2)ccc1O` [Example 2-1, N-(4′-chloro-1,1′-biphenyl-3-yl)-N′-(4-hydroxy-3 methoxybenzyl)urea], for which the melting point turned out to be 153.4 °C.
Turning to `O=C(Nc1cccc(-c2ccccc2)c1)Nc1ccccc1CCO` [Example 3-1, N-(1,1′-biphenyl-3-yl)-N′-[2-(2-hydroxyethyl)phenyl]urea], the melting point lay in the range of 196 to 198 °C.
Same read-out and setting: the figure for `COc1cccc(NC(=O)NCc2ccc(O)c(OC)c2)c1` [Example 34] is 133 °C; for `COc1ccc2c(c1)C(NC(=O)Nc1ccc(F)cc1)CCC2` (stereo not drawn) [Example 53] it is 177.5 °C.
Still for that read-out and setting: to `O=C(Nc1ccc(Cl)c(C(F)(F)F)c1)NC1CCCc2ccc(O)cc21` (stereo not drawn) [Example 54] belongs 201 °C.
`COc1cc(CNC(=O)Nc2ccc(Cl)c(C(F)(F)F)c2)ccc1O` [Example 55] displayed a melting point of 193 °C.
The compound `COc1cc(CNC(=O)Nc2ccc(F)cc2)ccc1O` [Example 56] gave a melting point of 211 to 212 °C.
`COc1cc(CNC(=O)Nc2ccccc2OC)ccc1O` [Example 57] displayed a melting point of 144 °C.
Still for that read-out and setting: the figure for `COc1cc(CNC(=O)Nc2ccccc2[N+](=O)[O-])ccc1O` [Example 58] is 180 °C.
Take `COc1cc(CNC(=O)Nc2c(C)cccc2C)ccc1O` [Example 60]: the melting point worked out at 211 °C.
As for `COc1cc(CNC(=O)Nc2ccc(C)cc2C)ccc1O` [Example 62], the melting point came to 184 °C.
As for `COc1cc(CNC(=O)Nc2ccc(Br)cc2)ccc1O` [Example 63], the melting point was determined as 203 °C.
In turn, `COc1cc(CNC(=O)Nc2ccc(Cl)c([N+](=O)[O-])c2)ccc1O` [Example 64] yielded a melting point of 180 °C.
`COc1cc(CNC(=O)Nc2cc([N+](=O)[O-])ccc2F)ccc1O` [Example 65] returned a melting point of 208 °C.
As for `COc1cc(CNC(=O)Nc2ccc(F)c([N+](=O)[O-])c2)ccc1O` [Example 66], the melting point amounted to 184 °C.
`COc1cc(CNC(=O)Nc2cccc3ccccc23)ccc1O` [Example 70] gave a melting point of 149 °C.
Compound `COc1cc(CNC(=O)Nc2ccc(Cl)c(Cl)c2)ccc1O` [Example 71] gave a melting point of 207 °C.
`COc1cc(CNC(=O)Nc2c(C)cc(C)cc2C)ccc1O` [Example 72] showed a melting point of 217 °C.
The compound `COc1cc2c(cc1O)CN(C(=O)Nc1ccc(Cl)c(C(F)(F)F)c1)CC2` [Example 78] showed a melting point of 130 °C.
The same measure, in the same setting: to `COc1cc(CNC(=O)Nc2cccc(C)c2)ccc1O` [Example 82] belongs 181 °C.
`COc1cc(CNC(=O)Nc2ccc(Cl)cc2)ccc1O` [Example 83] displayed a melting point of 210 °C.
As to `Nc1ccc2c(c1)C(NC(=O)Nc1ccc(Cl)c(C(F)(F)F)c1)CCC2` (stereo not drawn) [Example 96], the melting point worked out at 178 °C.
In turn, `O=C(Nc1ccc(Cl)c(C(F)(F)F)c1)Nc1ccccc1CCO` [Example 98] displayed a melting point of 175 to 177 °C.
In turn, `O=C(Nc1ccc(Oc2ccccc2)cc1)Nc1ccccc1CCO` [Example 99] registered a melting point of 133 to 135 °C.
Still for that read-out and setting: the figure for `CCOC(=O)c1cccc(NC(=O)Nc2ccccc2CCO)c1` [Example 100] is 152 to 153 °C.
`CC(C)c1ccc(NC(=O)Nc2ccccc2CCO)cc1` [Example 101] came in with a melting point of 149 to 150 °C.
`O=C(Nc1ccc2ccccc2c1)Nc1ccccc1CCO` [Example 102] displayed a melting point of 195 to 197 °C.
`O=C(NCc1ccc(Br)cc1)Nc1ccccc1CCO` [Example 103] registered a melting point of 198 to 200 °C.
In turn, `O=C(Nc1ccccc1Cl)Nc1ccccc1CCO` [Example 104] registered a melting point of 173 to 175 °C.
Compound `O=C(Nc1cccc(Cl)c1)Nc1ccccc1CCO` [Example 105] displayed a melting point of 188 to 190 °C.
Compound `O=C(Nc1ccc(Cl)cc1)Nc1ccccc1CCO` [Example 106] came in with a melting point of 185 to 187 °C.
On the same count and under the same terms, to `O=C(Nc1cccc(C(F)(F)F)c1)Nc1ccccc1CCO` [Example 107] belongs 173 to 175 °C.
`O=C(Nc1ccc(C(F)(F)F)cc1)Nc1ccccc1CCO` [Example 108] registered a melting point of 178 to 180 °C.
Consider `O=C(Nc1cc(Cl)cc(Cl)c1)Nc1ccccc1CCO` [Example 109], for which the melting point was 214 to 216 °C.
Regarding `O=C(Nc1ccc([N+](=O)[O-])cc1)Nc1ccccc1CCO` [Example 110], the melting point stood at 178 °C.
The compound `O=C(Nc1ccc(F)c([N+](=O)[O-])c1)Nc1ccccc1CCO` [Example 111] registered a melting point of 185 °C.
